Measurements reported in patent US20230257396A1, “MACROCYCLES AND THEIR USE” (BLOSSOMHILL THERAPEUTICS, INC., priority 2020, published 2023).

Experiments:
Assay in all cases: KINOMEscan kinase binding assay (Eurofins/DiscoveRx), % Ctrl
kinases [1] = biological target: T1, kinases (Homo sapiens, UniProt P00519, F317I); conditions: 1 μM
T1 construct: purchased Eurofins/DiscoveRx; host or cells: E. coli BL21-derived host (T7 phage display) for most kinases; HEK-293 for the rest
Outline: (§1)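 Competition binding, 1 h RT: phage-tagged or HEK-293-expressed DNA-tagged kinase + immobilized ligand + compound. Eluate kinase by qPCR. % Ctrl = (test − positive ctrl)/(negative ctrl − positive ctrl) × 100; lower means stronger binding.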

kinases [2] = biological target: T2, kinases (Homo sapiens, UniProt P00519, F317L); conditions: 1 μM
T2 construct: purchased Eurofins/DiscoveRx; host or cells: E. coli BL21-derived host (T7 phage display) for most kinases; HEK-293 for the rest
Outline: as §1

kinases [3] = biological target: T3, kinases (Homo sapiens, UniProt P00519, H396P); conditions: 1 μM
T3 construct: purchased Eurofins/DiscoveRx; host or cells: E. coli BL21-derived host (T7 phage display) for most kinases; HEK-293 for the rest
Outline: as §1

kinases [4] = biological target: T4, kinases (Homo sapiens, UniProt P09619); conditions: 1 μM; PDGFRB
T4 construct: purchased Eurofins/DiscoveRx; host or cells: E. coli BL21-derived host (T7 phage display) for most kinases; HEK-293 for the rest
T4 sequence (P09619 33-1106): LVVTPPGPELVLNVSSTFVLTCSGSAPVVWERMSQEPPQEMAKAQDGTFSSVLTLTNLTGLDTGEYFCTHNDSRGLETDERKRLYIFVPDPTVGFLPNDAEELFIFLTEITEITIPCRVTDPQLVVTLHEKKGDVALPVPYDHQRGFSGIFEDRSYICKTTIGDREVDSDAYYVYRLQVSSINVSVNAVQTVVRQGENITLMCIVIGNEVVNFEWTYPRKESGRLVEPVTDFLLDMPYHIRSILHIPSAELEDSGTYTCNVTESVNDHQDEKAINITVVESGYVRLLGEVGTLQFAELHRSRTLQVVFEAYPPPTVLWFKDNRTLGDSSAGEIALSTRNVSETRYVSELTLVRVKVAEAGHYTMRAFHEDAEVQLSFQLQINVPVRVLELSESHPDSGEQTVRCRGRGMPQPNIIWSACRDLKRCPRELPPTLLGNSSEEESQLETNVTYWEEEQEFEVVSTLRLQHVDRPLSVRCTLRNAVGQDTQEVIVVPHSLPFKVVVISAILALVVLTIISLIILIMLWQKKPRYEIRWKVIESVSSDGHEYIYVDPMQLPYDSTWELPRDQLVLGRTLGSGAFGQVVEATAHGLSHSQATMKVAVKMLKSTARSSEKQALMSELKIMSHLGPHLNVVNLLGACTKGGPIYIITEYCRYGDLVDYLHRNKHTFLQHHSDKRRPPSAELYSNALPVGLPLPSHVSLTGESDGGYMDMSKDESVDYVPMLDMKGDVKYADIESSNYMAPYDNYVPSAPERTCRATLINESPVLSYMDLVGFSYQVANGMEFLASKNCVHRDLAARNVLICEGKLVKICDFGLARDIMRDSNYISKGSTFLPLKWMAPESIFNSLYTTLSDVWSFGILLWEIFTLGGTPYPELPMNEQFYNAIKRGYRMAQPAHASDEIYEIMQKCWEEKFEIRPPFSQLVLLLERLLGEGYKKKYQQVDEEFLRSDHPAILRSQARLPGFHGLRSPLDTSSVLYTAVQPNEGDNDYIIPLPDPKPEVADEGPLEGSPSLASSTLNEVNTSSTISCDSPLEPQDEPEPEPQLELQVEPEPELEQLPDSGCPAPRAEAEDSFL
Outline: as §1

kinases [5] = biological target: T5, kinases (Homo sapiens, UniProt P36888, D835H); conditions: 1 μM; FLT3(D835H)
T5 construct: purchased Eurofins/DiscoveRx; host or cells: E. coli BL21-derived host (T7 phage display) for most kinases; HEK-293 for the rest
T5 sequence (P36888 27-993 D835H): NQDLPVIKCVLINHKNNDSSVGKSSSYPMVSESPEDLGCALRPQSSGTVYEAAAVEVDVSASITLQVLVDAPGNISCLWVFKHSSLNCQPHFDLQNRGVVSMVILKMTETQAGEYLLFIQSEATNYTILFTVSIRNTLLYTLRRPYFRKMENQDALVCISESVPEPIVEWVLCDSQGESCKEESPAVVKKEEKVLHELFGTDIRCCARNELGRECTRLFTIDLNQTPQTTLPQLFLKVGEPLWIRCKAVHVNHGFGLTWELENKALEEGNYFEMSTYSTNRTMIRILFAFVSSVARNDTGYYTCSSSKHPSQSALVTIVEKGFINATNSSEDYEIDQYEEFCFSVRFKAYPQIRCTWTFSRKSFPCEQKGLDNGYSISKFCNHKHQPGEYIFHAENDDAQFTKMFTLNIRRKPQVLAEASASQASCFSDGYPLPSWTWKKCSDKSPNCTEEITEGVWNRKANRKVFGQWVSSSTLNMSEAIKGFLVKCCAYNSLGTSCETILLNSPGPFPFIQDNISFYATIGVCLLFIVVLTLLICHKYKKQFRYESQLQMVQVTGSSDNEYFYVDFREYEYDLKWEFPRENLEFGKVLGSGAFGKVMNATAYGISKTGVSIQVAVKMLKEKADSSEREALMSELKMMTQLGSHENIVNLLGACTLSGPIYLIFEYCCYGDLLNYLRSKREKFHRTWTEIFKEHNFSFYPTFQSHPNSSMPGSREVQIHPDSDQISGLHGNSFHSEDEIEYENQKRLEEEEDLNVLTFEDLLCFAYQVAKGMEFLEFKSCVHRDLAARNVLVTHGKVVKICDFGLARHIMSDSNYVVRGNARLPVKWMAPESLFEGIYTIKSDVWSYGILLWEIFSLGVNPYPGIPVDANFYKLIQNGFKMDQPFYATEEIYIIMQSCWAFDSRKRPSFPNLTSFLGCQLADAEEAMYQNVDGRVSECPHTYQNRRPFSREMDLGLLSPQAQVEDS
Outline: as §1

Row | Compound | % Ctrl, ABL1(F317I)-nonphosphorylated (kinases [1]) | % Ctrl, ABL1(F317I)-phosphorylated (kinases [1]) | % Ctrl, ABL1(F317L)-nonphosphorylated (kinases [2]) | % Ctrl, ABL1(F317L)-phosphorylated (kinases [2]) | % Ctrl, ABL1(H396P)-nonphosphorylated (kinases [3]) | % Ctrl, ABL1(H396P)-phosphorylated (kinases [3]) | % Ctrl, PDGFRB (kinases [4]) | % Ctrl, FLT3(D835H) (kinases [5])
1 | Cc1cc2c([nH]1)/C=C1\C(=O)Nc3ccc(cc31)-c1cnn(C)c1CNCCN(C)C2=O [Ex. 125, [3a(4)Z]-6,9,14-trimethyl-9,10,11,12,13,14-hexahydro-1,17-(ethanediylidene)pyrazolo[4,3-m]dipyrrolo[3,2-f:3′,4′-i][1,4]diazacyclopentadecine-3,8(2H,5H)-dione] | 0 % Ctrl | 0.75 % Ctrl | 0 % Ctrl | 0.55 % Ctrl | 0 % Ctrl | 0.1 % Ctrl | 0.4 % Ctrl | 0.05 % Ctrl
2 | Cc1cc2c([nH]1)/C=C1\C(=O)Nc3ccc(cc31)-c1cnn(C)c1CN(C)CCN(C)C2=O [Ex. 126, [3a(4)Z]-6,9,12,14-tetramethyl-9,10,11,12,13,14-hexahydro-1,17-(ethanediylidene)pyrazolo[4,3-m]dipyrrolo[3,2-f:3′,4′-i][1,4]diazacyclopentadecine-3,8(2H,5H)-dione] | 0 % Ctrl | 0.3 % Ctrl | 1.7 % Ctrl | 0 % Ctrl | 0 % Ctrl | 0.1 % Ctrl | 0 % Ctrl | 0.05 % Ctrl
3 | Cc1cc2c([nH]1)/C=C1\C(=O)Nc3ccc(cc31)-c1c(C)n[nH]c1CNCCN(C)C2=O [Ex. 127, [3a(4)Z]-6,9,16-trimethyl-9,10,11,12,13,14-hexahydro-1,17-(ethanediylidene)pyrazolo[4,3-m]dipyrrolo[3,2-f:3′,4′-i][1,4]diazacyclopentadecine-3,8(2H,5H)-dione] | 2.6 % Ctrl | 5.5 % Ctrl | 4.1 % Ctrl | 0.8 % Ctrl | 0 % Ctrl | 0 % Ctrl | 28 % Ctrl | 0.15 % Ctrl
4 | Cc1cc2c([nH]1)/C=C1\C(=O)Nc3ccc(cc31)-c1c(noc1C)COCCN(C)C2=O [Ex. 128, [3a(4)Z]-6,9,16-trimethyl-1,11-dihydro-2H,13H-1,17-(ethanediylidene)[1,4]oxazolo[4,3-m]dipyrrolo[3,2-f:3′,4′-i][1,4]oxazacyclopentadecine-3,8(5H,9H)-dione] | 100 % Ctrl | 55 % Ctrl | 85 % Ctrl | 58 % Ctrl | 28 % Ctrl | 51 % Ctrl | 85 % Ctrl | 23 % Ctrl
5 | Cc1cc2c([nH]1)/C=C1\C(=O)Nc3ccc(cc31)OCCOCCNC2=O [Ex. 129, [16a(17)Z]-2-methyl-6,7,9,10-tetrahydro-1H-12,14-(ethanediylidene)dipyrrolo[3,2-i:3′,4′-l][1,4,7]dioxazacyclopentadecine-4,16(5H,15H)-dione] | 94 % Ctrl | 100 % Ctrl | 93 % Ctrl | 79 % Ctrl | 87 % Ctrl | 93 % Ctrl | 100 % Ctrl | 44 % Ctrl
6 | Cc1cc2c([nH]1)/C=C1\C(=O)Nc3cc(Cl)c(cc31)OCCOCCN(C)C2=O [Ex. 131, [16a(17)Z]-19-chloro-2,5-dimethyl-6,7,9,10-tetrahydro-1H-12,14-(ethanediylidene)dipyrrolo[3,2-i:3′,4′-l][1,4,7]dioxazacyclopentadecine-4,16(5H,15H)-dione] | 0 % Ctrl | 3.5 % Ctrl | 0 % Ctrl | 1.3 % Ctrl | 0 % Ctrl | 0 % Ctrl | 1.4 % Ctrl | 0 % Ctrl

Other lines, results leading:

Row | % Ctrl, ABL1(F317I)-nonphosphorylated (kinases [1]) | % Ctrl, ABL1(F317I)-phosphorylated (kinases [1]) | % Ctrl, ABL1(F317L)-nonphosphorylated (kinases [2]) | % Ctrl, ABL1(F317L)-phosphorylated (kinases [2]) | % Ctrl, ABL1(H396P)-nonphosphorylated (kinases [3]) | % Ctrl, ABL1(H396P)-phosphorylated (kinases [3]) | % Ctrl, PDGFRB (kinases [4]) | % Ctrl, FLT3(D835H) (kinases [5]) | Compound
7 | 93 % Ctrl | 89 % Ctrl | 77 % Ctrl | 88 % Ctrl | 49 % Ctrl | 67 % Ctrl | 60 % Ctrl | 39 % Ctrl | Cc1cc2c([nH]1)/C=C1\C(=O)Nc3cc(Cl)c(cc31)OCCO[C@@H](C(=O)NC1CNC1)CN(C)C2=O [Ex. 133, [7R,16a(17)Z]-N-(azetidin-3-yl)-19-chloro-2,5-dimethyl-4,16-dioxo-4,5,6,7,9,10,15,16-octahydro-1H-12,14-(ethanediylidene)dipyrrolo[3,2-i:3′,4′-l][1,4,7]dioxazacyclopentadecine-7-carboxamide]
8 | 84 % Ctrl | 70 % Ctrl | 62 % Ctrl | 57 % Ctrl | 25 % Ctrl | 35 % Ctrl | 66 % Ctrl | 35 % Ctrl | Cc1cc2c([nH]1)/C=C1\C(=O)Nc3cc(Cl)c(cc31)OCCO[C@@H](C(=O)NC1CCNCC1)CN(C)C2=O [Ex. 134, [7R,16a(17)Z]-19-chloro-2,5-dimethyl-4,16-dioxo-N-(piperidin-4-yl)-4,5,6,7,9,10,15,16-octahydro-1H-12,14-(ethaneidylidene)dipyrrolo[3,2-i:3′,4′-l][1,4,7]dioxazacyclopentadecine-7-carboxamide]
9 | 96 % Ctrl | 84 % Ctrl | 78 % Ctrl | 64 % Ctrl | 29 % Ctrl | 54 % Ctrl | 80 % Ctrl | 37 % Ctrl | CNC(=O)[C@H]1CN(C)C(=O)c2cc(C)[nH]c2/C=C2\C(=O)Nc3cc(Cl)c(cc32)OCCO1 [Ex. 135, [7R,16a(17)Z]-19-chloro-N,2,5-trimethyl-4,16-dioxo-4,5,6,7,9,10,15,16-octahydro-1H-12,14-(ethanediylidene)dipyrrolo[3,2-i:3′,4′-l][1,4,7]dioxazacyclopentadecine-7-carboxamide]
10 | 78 % Ctrl | 66 % Ctrl | 59 % Ctrl | 44 % Ctrl | 11 % Ctrl | 22 % Ctrl | 38 % Ctrl | 32 % Ctrl | Cc1cc2c([nH]1)/C=C1\C(=O)Nc3cc(Cl)c(cc31)OCCO[C@@H](C(=O)N[C@@H]1CCNC1)CN(C)C2=O [Ex. 136, [7R,16a(17)Z]-19-chloro-2,5-dimethyl-4,16-dioxo-N-[(3R)-pyrrolidin-3-yl]-4,5,6,7,9,10,15,16-octahydro-1H-12,14-(ethanediylidene)dipyrrolo[3,2-i:3′,4′-l][1,4,7]dioxazacyclopentadecine-7-carboxamide]
11 | 95 % Ctrl | 83 % Ctrl | 76 % Ctrl | 67 % Ctrl | 38 % Ctrl | 65 % Ctrl | 90 % Ctrl | 53 % Ctrl | Cc1cc2c([nH]1)/C=C1\C(=O)Nc3cc(Cl)c(cc31)OCCO[C@@H](C(=O)N(C)C)CN(C)C2=O [Ex. 137, [7R,16a(17)Z]-19-chloro-N,N,2,5-tetramethyl-4,16-dioxo-4,5,6,7,9,10,15,16-octahydro-1H-12,14-(ethanediylidene)dipyrrolo[3,2-i:3′,4′-l][1,4,7]dioxazacyclopentadecine-7-carboxamide]
